Experimental data published in the supplement of paper PMC4862054.

Assays:
Conditions in all cases: incubation time: 72 h
[1] = tested on: BT-474; assay: drug sensitivity score (DSS), CellTiter-Glo (DSS (AUC-based score)); higher = stronger drug effect (viability inhibition or cytotoxicity); extreme values may be limits of the assay
In short: (§1)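 Normalisation on every plate relied on 0.1 % DMSO and a positive kill control. The plates, 384-well format, held compound at 5 concentrations 10-fold apart across a compound-specific 10,000-fold range, and breast cancer cell lines in 20 µl suspension were incubated on them for 72 h before CellTox Green and then CellTiter-Glo readings. The drug sensitivity score derives from the area under the fitted dose-response curve.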

[2] = tested on: BT-549; assay: as above
In short: as §1

[3] = tested on: CAL-120; assay: as above
In short: as §1

[4] = tested on: CAL-148; assay: as above
In short: as §1

[5] = tested on: CAL-51; assay: as above
In short: as §1

[6] = tested on: CAL-85-1; assay: as above
In short: as §1

[7] = tested on: DU-4475; assay: as above
In short: as §1

[8] = tested on: HCC1143; assay: as above
In short: as §1

[9] = tested on: HCC1599; assay: as above
In short: as §1

[10] = tested on: HCC1937; assay: as above
In short: as §1

[11] = tested on: HDQ-P1; assay: as above
In short: as §1

[12] = tested on: Hs578T; assay: as above
In short: as §1

[13] = tested on: MCF-10A; assay: as above
In short: as §1

[14] = tested on: MDA-MB-231; assay: as above
In short: as §1

[15] = tested on: MDA-MB-436; assay: as above
In short: as §1

[16] = tested on: MDA-MB-453; assay: as above
In short: as §1

[17] = tested on: MDA-MB-468; assay: as above
In short: as §1

[18] = tested on: MFM-223; assay: as above
In short: as §1

[19] = tested on: SK-BR-3; assay: as above
In short: as §1

[20] = tested on: BT-474; assay: drug sensitivity score (DSS), CellTox Green (DSS (AUC-based score)); higher = stronger drug effect (viability inhibition or cytotoxicity); extreme values may be limits of the assay
In short: as §1

[21] = tested on: BT-549; assay: as above
In short: as §1

[22] = tested on: CAL-120; assay: as above
In short: as §1

[23] = tested on: CAL-148; assay: as above
In short: as §1

[24] = tested on: CAL-51; assay: as above
In short: as §1

[25] = tested on: DU-4475; assay: as above
In short: as §1

[26] = tested on: MDA-MB-468; assay: as above
In short: as §1

[27] = tested on: MFM-223; assay: as above
In short: as §1

Structure (SMILES) | drug sensitivity score [1] | drug sensitivity score [2] | drug sensitivity score [3] | drug sensitivity score [4] | drug sensitivity score [5] | drug sensitivity score [6] | drug sensitivity score [7] | drug sensitivity score [8] | drug sensitivity score [9] | drug sensitivity score [10] | drug sensitivity score [11] | drug sensitivity score [12] | drug sensitivity score [13] | drug sensitivity score [14] | drug sensitivity score [15] | drug sensitivity score [16] | drug sensitivity score [17] | drug sensitivity score [18] | drug sensitivity score [19] | drug sensitivity score [20] | drug sensitivity score [21] | drug sensitivity score [22] | drug sensitivity score [23] | drug sensitivity score [24] | drug sensitivity score [25] | drug sensitivity score [26] | drug sensitivity score [27]
CCN1CCN(c2ccc(Nc3cc(N(C)C(=O)Nc4c(Cl)c(OC)cc(OC)c4Cl)ncn3)cc2)CC1 [NVP-BGJ398] | 0 | 0 | 2.55 | 0 | 0 | 0 | 0 | 0 | 0 | 0 | 0 | 0.39 | 0 | 0 | 0 | 0 | 0 | 7.35 | 0 | 0 | 0 | 0.0505 | 0 | 0 | 0 | 0 | 0
COc1cccc2cc(-c3nc([C@H]4CC[C@H](C(=O)O)CC4)n4ncnc(N)c34)[nH]c12 [OSI-027] | 4.09 | 6.24 | 5.45 | 2.6 | 4.69 | 5.52 | 2.39 | 2.97 | 0 | 3.56 | 7.43 | 2.44 | 4.28 | 3.06 | 4.39 | 8 | 4.37 | 6.51 | 13.4 | 0 | 0 | 0 | 0 | 0 | 0 | 0 | 0
OC[C@H]1O[C@@H](n2cnc3c2N=CNC[C@H]3O)C[C@@H]1O [Pentostatin] | 0.0029 | 0 | 0 | 0 | 0 | 0 | 0 | 0 | 0 | 0 | 0 | 0 | 0 | 0 | 0 | 0 | 0 | 0 | 0 | 0 | 0 | 0 | 0 | 0 | 0 | 0 | 0
N#CC[C@H](C1CCCC1)n1cc(-c2ncnc3[nH]ccc23)cn1 [Ruxolitinib] | 0.693 | 0 | 1.35 | 0 | 0 | 0 | 0 | 0 | 0 | 0 | 0 | 0 | 0 | 0 | 0 | 0 | 0.173 | 1.49 | 0 | 0 | 0 | 0 | 0 | 0 | 0 | 0 | 0
C=CC[C@@H]1/C=C(\C)C[C@H](C)C[C@H](OC)[C@H]2O[C@@](O)(C(=O)C(=O)N3CCCC[C@H]3C(=O)O[C@H](/C(C)=C/[C@@H]3CC[C@@H](O)[C@H](OC)C3)[C@H](C)[C@@H](O)CC1=O)[C@H](C)C[C@@H]2OC [Tacrolimus] | 0.128 | 0 | 0 | 0 | 0 | 0 | 0 | 0 | 0 | 0 | 0 | 0 | 0 | 0 | 0 | 0 | 0 | 0 | 0 | 0 | 0 | 0 | 0 | 0 | 0 | 0 | 0
C=CCNC1=C2C[C@@H](C)C[C@H](OC)[C@H](O)[C@@H](C)/C=C(\C)[C@H](OC(N)=O)[C@@H](OC)/C=C\C=C(/C)C(=O)NC(=CC1=O)C2=O [Tanespimycin] | 14.5 | 18.5 | 10.5 | 16.3 | 20.7 | 13.3 | 20.2 | 18 | 8.46 | 16.5 | 19 | 15.6 | 21.6 | 14.5 | 18.2 | 23.7 | 11.3 | 16.8 | 18.3 | 7.84 | 0 | 0.533 | 15.9 | 10.9 | 7.07 | 0 | 0
CO[C@H]1C[C@@H]2CC[C@@H](C)[C@@](O)(O2)C(=O)C(=O)N2CCCC[C@H]2C(=O)O[C@H]([C@H](C)C[C@@H]2CC[C@@H](OC(=O)C(C)(CO)CO)[C@H](OC)C2)CC(=O)[C@H](C)/C=C(\C)[C@@H](O)[C@@H](OC)C(=O)[C@H](C)C[C@H](C)/C=C/C=C/C=C/1C [Temsirolimus] | 2.49 | 12.7 | 7.34 | 8.93 | 11.3 | 9.28 | 5.2 | 8.92 | 0 | 6.15 | 4.08 | 10.1 | 0 | 0 | 3.51 | 9.78 | 14.7 | 7.59 | 11 | 0 | 0 | 0 | 0 | 0 | 0 | 0 | 0
O=C(c1ccc(C(=O)N2CCC(N3CCCC3)CC2)c(Nc2ccccc2)c1)N1CCC(N2CCCC2)CC1 [UNC1215] | 0 | 0 | 0 | 0 | 0 | 0 | 0 | 0 | 0 | 0 | 0 | 0 | 0 | 0 | 0 | 0 | 0 | 0 | 0 | 0 | 0 | 0 | 0 | 0 | 0 | 0 | 0
C[C@]1(c2nc3c(C(N)=O)cccc3[nH]2)CCCN1 [Veliparib] | 0.587 | 0 | 0 | 0 | 3.97 | 0 | 0 | 0 | 0 | 0 | 0 | 0 | 0 | 0 | 0 | 0 | 0 | 0 | 0 | 0 | 0 | 0 | 2.57 | 0 | 0 | 0 | 0
CC[C@]1(O)C[C@@H]2CN(CCc3c([nH]c4ccccc34)[C@@](C(=O)OC)(c3cc4c(cc3OC)N(C)[C@H]3[C@@](O)(C(=O)OC)[C@H](OC(C)=O)[C@]5(CC)C=CCN6CC[C@]43[C@@H]65)C2)C1 [Vinblastine] | 14.3 | 21.3 | 14.2 | 13 | 18.4 | 20.7 | 8.05 | 15.8 | 17.2 | 9.45 | 7.5 | 20.3 | 10.9 | 16.2 | 22.8 | 13.1 | 21.1 | 13 | 27.5 | 8.39 | 10.2 | 3.49 | 0 | 22.3 | 0 | 12.8 | 12.2
CS(=O)(=O)c1ccc(C(=O)Nc2ccc(Cl)c(-c3ccccn3)c2)c(Cl)c1 [Vismodegib] | 0 | 0 | 0 | 0 | 0 | 0 | 0 | 0 | 0 | 0 | 0 | 0 | 0 | 0 | 0 | 0 | 0 | 0 | 0 | 0 | 0 | 0 | 0 | 0 | 0 | 0 | 0
